Publication PMC8550792, “Evolution of kinase polypharmacology across HSP90 drug discovery” (Cell Chemical Biology, 2021)

What was measured:
Assay in all cases: biochemical
Type in all cases: biochemical
[1] = biological target: T1, 382 unique human kinases (Homo sapiens, UniProt Q16832, T654M); details: DDR2 (T654M), 10 uM; for remaining activity at 10 µM: read-out: % Enzyme Activity (relative to DMSO controls)
T1 construct: purchased Reaction Biology (HotSpot contract assay)
T1 sequence (Q16832 22-855 T654M): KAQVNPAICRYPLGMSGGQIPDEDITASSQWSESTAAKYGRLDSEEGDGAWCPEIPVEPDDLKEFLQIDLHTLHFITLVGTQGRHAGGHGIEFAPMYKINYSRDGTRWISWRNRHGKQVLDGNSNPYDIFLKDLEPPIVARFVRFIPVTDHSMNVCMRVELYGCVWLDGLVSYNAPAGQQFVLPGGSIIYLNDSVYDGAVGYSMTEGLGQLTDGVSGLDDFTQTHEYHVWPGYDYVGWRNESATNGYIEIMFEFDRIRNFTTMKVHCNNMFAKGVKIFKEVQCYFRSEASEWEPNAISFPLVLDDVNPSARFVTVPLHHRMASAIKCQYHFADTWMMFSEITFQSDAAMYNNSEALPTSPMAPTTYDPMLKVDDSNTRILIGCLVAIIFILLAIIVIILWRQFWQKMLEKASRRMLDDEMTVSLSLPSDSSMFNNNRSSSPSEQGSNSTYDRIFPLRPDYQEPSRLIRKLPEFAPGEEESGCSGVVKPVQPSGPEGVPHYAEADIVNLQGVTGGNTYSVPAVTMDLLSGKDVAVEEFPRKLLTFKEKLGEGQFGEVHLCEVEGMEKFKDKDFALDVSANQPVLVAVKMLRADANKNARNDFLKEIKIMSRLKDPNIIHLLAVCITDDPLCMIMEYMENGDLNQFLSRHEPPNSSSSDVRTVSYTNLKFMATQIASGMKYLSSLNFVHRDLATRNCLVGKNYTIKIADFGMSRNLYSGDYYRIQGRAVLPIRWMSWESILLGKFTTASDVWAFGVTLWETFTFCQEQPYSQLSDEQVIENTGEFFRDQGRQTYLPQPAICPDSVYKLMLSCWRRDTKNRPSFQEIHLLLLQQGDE

[2] = biological target: T2, 382 unique human kinases (Homo sapiens, UniProt P00533, L861Q); details: kinase EGFR (L861Q), compound 10 uM; for remaining activity at 10 µM: read-out: % Enzyme Activity (relative to DMSO controls)
T2 construct: purchased Reaction Biology (HotSpot contract assay)

[3] = biological target: T3, 382 unique human kinases (Homo sapiens, UniProt Q15303); details: kinase ERBB4/HER4, compound 10 uM; for remaining activity at 10 µM: read-out: % Enzyme Activity (relative to DMSO controls)
T3 construct: purchased Reaction Biology (HotSpot contract assay)
T3 sequence (Q15303 26-1308): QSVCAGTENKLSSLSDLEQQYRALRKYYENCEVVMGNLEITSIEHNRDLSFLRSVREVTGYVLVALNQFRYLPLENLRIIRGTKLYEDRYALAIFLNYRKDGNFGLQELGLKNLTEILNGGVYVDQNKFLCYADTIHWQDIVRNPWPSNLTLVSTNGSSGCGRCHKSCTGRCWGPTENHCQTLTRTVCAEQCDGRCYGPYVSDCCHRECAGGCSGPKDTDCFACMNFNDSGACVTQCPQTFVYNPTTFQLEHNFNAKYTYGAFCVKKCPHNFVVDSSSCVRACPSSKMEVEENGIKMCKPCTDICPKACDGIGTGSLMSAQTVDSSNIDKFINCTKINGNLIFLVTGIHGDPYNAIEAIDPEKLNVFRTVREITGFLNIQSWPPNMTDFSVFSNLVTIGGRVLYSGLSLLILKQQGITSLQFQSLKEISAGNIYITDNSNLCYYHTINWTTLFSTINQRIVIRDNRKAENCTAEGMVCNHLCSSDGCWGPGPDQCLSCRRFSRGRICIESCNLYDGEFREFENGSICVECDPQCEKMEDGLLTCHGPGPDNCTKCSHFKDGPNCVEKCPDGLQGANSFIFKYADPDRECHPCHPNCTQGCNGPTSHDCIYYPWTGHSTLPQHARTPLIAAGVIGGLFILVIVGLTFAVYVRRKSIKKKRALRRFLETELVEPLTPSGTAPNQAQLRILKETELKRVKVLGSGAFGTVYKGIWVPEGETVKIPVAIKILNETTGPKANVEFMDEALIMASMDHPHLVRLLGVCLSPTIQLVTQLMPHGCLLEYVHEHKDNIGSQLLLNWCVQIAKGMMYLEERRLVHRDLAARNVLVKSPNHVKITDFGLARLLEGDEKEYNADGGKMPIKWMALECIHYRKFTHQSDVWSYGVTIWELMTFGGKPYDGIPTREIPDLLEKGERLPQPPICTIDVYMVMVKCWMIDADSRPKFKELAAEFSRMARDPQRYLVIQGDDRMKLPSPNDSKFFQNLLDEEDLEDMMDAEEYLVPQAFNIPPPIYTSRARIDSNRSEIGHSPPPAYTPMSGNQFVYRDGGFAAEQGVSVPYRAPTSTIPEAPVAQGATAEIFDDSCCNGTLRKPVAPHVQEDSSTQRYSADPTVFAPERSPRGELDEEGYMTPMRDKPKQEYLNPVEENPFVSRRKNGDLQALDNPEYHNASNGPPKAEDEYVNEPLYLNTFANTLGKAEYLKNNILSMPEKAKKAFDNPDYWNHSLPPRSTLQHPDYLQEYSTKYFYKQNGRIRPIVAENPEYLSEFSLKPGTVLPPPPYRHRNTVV

[4] = biological target: T4, 382 unique human kinases (Homo sapiens, UniProt Q02156); details: kinase PKCepsilon, compound 10 uM; for remaining activity at 10 µM: read-out: % Enzyme Activity (relative to DMSO controls)
T4 construct: purchased Reaction Biology (HotSpot contract assay)
T4 sequence (Q02156 1-737): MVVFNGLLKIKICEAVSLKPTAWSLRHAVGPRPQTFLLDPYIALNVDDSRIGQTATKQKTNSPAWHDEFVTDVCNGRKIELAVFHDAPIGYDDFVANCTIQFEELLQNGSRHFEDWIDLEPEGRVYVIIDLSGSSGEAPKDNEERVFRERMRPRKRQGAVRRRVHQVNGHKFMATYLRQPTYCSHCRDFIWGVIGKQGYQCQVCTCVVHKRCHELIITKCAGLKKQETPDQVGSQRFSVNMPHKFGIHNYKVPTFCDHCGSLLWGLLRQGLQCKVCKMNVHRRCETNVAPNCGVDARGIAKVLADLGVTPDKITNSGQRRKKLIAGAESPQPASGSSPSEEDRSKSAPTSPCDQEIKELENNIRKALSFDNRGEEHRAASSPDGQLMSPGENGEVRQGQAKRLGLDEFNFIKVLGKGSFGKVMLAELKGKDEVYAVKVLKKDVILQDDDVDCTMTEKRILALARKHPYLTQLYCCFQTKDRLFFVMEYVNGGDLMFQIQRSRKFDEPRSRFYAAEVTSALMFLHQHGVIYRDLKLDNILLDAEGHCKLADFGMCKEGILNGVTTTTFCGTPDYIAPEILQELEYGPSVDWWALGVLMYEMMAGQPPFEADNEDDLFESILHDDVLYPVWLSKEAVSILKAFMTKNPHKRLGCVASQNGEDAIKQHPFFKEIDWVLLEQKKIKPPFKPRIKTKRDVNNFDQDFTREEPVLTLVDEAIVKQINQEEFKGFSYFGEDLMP

[5] = biological target: T5, 382 unique human kinases (Homo sapiens, UniProt P54762); details: EPHB1, [ATP] 100 µM, compound 10 uM; for remaining activity at 10 µM: read-out: % Enzyme Activity (relative to DMSO controls)
T5 construct: purchased Reaction Biology (HotSpot contract assay)
T5 sequence (P54762 18-984): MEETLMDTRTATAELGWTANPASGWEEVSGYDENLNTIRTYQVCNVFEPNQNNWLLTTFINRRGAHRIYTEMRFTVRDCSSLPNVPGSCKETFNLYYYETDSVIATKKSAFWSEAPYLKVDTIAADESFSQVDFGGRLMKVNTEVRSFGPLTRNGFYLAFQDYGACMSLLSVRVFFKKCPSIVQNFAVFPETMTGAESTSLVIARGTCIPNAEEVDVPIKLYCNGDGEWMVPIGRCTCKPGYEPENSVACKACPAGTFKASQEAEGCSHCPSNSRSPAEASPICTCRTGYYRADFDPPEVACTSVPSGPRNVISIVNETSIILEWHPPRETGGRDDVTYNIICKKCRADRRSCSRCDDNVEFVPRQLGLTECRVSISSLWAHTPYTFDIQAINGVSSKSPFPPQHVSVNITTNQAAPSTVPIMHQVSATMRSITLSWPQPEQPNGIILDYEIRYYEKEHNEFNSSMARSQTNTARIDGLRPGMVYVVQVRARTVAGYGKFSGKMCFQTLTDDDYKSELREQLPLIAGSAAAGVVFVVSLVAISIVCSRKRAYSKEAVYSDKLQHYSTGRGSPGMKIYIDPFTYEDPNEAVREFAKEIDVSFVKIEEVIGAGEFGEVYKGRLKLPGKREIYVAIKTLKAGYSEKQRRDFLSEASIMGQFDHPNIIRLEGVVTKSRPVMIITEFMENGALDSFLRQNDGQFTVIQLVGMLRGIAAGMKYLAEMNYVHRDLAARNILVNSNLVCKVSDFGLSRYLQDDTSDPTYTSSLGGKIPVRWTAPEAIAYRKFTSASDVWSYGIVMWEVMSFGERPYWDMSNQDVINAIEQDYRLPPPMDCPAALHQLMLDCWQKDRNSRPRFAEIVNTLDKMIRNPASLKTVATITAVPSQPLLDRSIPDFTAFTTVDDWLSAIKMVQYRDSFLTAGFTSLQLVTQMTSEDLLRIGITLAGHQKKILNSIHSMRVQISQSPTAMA

[6] = biological target: T6, 382 unique human kinases (Homo sapiens, UniProt Q16513); details: PKN2/PRK2, 10 uM; for remaining activity at 10 µM: read-out: % Enzyme Activity (relative to DMSO controls)
T6 construct: purchased Reaction Biology (HotSpot contract assay)
T6 sequence (Q16513 whole entry): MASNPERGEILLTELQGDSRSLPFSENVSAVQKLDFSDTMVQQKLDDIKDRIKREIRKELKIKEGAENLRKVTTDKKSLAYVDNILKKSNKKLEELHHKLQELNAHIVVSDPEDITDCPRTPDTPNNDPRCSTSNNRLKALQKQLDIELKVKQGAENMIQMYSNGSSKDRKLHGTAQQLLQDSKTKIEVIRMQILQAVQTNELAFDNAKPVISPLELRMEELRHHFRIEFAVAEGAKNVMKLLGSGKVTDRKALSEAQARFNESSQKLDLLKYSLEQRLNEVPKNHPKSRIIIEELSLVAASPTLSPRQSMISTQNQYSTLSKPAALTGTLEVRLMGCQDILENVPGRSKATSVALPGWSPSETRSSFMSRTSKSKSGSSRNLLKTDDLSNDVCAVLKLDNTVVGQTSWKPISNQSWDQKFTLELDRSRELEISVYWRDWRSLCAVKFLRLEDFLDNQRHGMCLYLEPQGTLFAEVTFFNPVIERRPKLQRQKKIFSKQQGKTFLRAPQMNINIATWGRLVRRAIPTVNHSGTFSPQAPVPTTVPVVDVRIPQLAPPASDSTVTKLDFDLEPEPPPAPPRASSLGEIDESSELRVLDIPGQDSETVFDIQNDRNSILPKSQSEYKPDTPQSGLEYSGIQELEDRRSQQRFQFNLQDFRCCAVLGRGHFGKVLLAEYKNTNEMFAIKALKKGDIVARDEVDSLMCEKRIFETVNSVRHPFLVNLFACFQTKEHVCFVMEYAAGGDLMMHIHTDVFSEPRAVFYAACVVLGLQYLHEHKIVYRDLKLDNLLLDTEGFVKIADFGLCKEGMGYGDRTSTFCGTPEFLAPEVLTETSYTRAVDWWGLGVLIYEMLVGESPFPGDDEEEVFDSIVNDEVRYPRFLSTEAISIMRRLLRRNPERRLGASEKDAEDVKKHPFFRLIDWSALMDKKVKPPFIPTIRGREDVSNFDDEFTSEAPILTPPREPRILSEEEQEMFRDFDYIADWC

[7] = biological target: T7, 382 unique human kinases (Homo sapiens, UniProt Q9UM73, T1151M); details: ALK (T1151M), [ATP] 50 µM, compound 10 uM; for remaining activity at 10 µM: read-out: % Enzyme Activity (relative to DMSO controls)
T7 construct: purchased Reaction Biology (HotSpot contract assay)
T7 sequence (Q9UM73 19-1620 T1151M): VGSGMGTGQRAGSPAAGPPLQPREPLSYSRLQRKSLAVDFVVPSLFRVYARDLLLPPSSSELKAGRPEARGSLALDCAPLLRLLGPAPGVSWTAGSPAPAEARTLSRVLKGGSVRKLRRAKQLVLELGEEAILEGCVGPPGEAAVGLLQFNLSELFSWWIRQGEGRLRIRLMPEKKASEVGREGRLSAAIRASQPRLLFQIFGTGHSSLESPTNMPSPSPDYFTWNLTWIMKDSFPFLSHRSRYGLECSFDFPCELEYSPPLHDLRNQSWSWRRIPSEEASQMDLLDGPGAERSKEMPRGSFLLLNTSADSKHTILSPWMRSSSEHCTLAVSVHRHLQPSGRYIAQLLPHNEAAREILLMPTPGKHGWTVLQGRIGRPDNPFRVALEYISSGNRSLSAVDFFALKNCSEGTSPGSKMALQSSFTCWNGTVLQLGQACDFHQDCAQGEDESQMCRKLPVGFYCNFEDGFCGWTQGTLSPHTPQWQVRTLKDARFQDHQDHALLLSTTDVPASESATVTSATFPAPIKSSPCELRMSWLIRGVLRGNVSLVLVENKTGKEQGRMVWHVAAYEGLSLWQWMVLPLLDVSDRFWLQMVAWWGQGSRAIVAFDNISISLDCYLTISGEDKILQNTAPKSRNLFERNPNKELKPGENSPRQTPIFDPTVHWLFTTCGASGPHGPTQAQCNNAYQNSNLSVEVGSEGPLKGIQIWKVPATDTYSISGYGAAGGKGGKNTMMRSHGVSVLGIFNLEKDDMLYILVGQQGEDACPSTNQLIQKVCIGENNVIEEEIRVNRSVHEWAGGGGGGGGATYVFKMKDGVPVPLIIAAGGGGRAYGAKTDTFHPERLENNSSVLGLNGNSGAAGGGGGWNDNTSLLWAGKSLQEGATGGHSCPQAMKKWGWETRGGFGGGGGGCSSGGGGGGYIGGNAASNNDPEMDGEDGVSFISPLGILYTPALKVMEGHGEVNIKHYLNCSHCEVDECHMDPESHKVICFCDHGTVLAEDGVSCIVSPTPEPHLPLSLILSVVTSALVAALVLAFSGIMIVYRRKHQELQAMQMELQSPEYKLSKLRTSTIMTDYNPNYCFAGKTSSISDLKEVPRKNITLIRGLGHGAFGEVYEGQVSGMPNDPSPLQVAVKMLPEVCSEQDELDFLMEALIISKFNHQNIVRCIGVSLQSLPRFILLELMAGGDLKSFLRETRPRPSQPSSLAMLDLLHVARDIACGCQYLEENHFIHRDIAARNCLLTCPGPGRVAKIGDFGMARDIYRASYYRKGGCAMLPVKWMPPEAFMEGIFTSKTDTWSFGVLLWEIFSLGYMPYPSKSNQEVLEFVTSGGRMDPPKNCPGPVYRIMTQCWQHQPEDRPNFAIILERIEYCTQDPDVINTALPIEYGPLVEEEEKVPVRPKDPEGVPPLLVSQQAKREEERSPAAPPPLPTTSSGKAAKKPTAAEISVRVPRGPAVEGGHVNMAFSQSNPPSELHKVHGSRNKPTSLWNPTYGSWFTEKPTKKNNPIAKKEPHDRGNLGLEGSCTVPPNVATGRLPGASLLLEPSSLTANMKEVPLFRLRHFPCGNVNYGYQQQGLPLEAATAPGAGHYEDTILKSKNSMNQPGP

Work on `CC(C)c1cc(-c2n[nH]c(=O)n2-c2ccc3c(ccn3C)c2)c(O)cc1O` [Ganetespib (STA9090)] yielded a remaining activity at 10 µM [1] of 75%, a remaining activity at 10 µM [2] of 90.9% and a remaining activity at 10 µM [3] of 88.8%. It also gave a remaining activity at 10 µM [4] of 87%.

`CC(C)c1cc(-c2n[nH]c(=O)n2-c2ccc3c(ccn3C)c2)c(O)cc1O` [Ganetespib] was tested, and the remaining activity at 10 µM [5] was 36%, the remaining activity at 10 µM [6] was 95.7% and the remaining activity at 10 µM [7] was 45.5%.

With `CCNC(=O)c1noc(-c2cc(C(C)C)c(O)cc2O)c1-c1ccc(CN2CCOCC2)cc1` [Luminespib (AUY-922)] the “% Enzyme Activity (relative to DMSO controls)” value [1] was 100.41%, the remaining activity at 10 µM [1] was 102% and the “% Enzyme Activity (relative to DMSO controls)” value [2] was 100.91%. The remaining activity at 10 µM [2] was 104%, the “% Enzyme Activity (relative to DMSO controls)” value [3] was 92.70% and the remaining activity at 10 µM [3] was 92.8%. For the same compound, the “% Enzyme Activity (relative to DMSO controls)” value [4] was 103.78% and the remaining activity at 10 µM [4] was 107%.

`CCNC(=O)c1noc(-c2cc(C(C)C)c(O)cc2O)c1-c1ccc(CN2CCOCC2)cc1` [Luminespib] was tested, and the “% Enzyme Activity (relative to DMSO controls)” value [5] was 90.73%, the remaining activity at 10 µM [5] was 92.3% and the “% Enzyme Activity (relative to DMSO controls)” value [6] was 98.60%. For the same compound, the remaining activity at 10 µM [6] was 99.3%, the “% Enzyme Activity (relative to DMSO controls)” value [7] was 99.07% and the remaining activity at 10 µM [7] was 99.2%.
